Data taken from US6300471A, “FSH-releasing peptides” (Board of Supervisors of Louisiana State University and …, priority 1998, dated 2001).
Entries after “also recorded” stand apart in the source; their conditions may differ. Like-named read-outs stand apart in the source and are kept apart here. Where a SMILES comes first, the peptide text is derived from it. [ ]: non-standard residue; d: D form. pGlu = O=C1CC[C@@H](C(=O)O)N1

What was measured:
[1] = test system: hemi-anterior pituitaries of adult male rats; assay: FSH release in vitro from incubated hemi-anterior pituitaries (RIA of medium); type: cell-based, rat; conditions: for FSH: n = 6
Protocol: (§1) After acclimatization for 5 or more days in the vivarium, male rats were killed by decapitation. Following removal of the posterior lobe, the anterior pituitary (AP) was bisected longitudinally, and each AP was incubated in a tube containing 0.5 ml Krebs-Ringer bicarbonate (5 mM ascorbic acid; pH 7.4) buffer (KRB) in an atmosphere of 95% O2 /5% CO2 in a Dubnoff shaker (50 cycles per min) for a period of 60 min. Following this pre-incubation period, the APs were incubated for 3 hr in fresh KRB buffer alone (control), or in KRB containing one of various concentrations of synthetic mammalian (m)-LHRH, l-LHRH-III, l-LHRH-I, chicken (c)-LHRH-II, or salmon (s)-LHRH. The medium was then aspirated, and was stored frozen at -20° C. until radio-immunoassays (RIA) for FSH and LH were conducted. FSH and LH were measured using kits supplied by the National Institute of Arthritis Digestive Diabetes and Kidney Disease; hormone values were expressed in terms of NIH-rFSH-RP-2 and NIH-rLH-RP-3 standards. The experiments were repeated twice. The inter- and intra-assay coefficients of variation for FSH assays were 7.5% and 5.2%, respectively; and were 6.5% and 4.8% for LH assays.

[2] = test system: hemi-anterior pituitaries of adult male rats; assay: LH release in vitro from incubated hemi-anterior pituitaries (RIA of medium); type: cell-based, rat; conditions: for LH: n = 6
Protocol: as §1

[3] = test system: ovariectomized, estrogen- and progesterone-blocked female rats; assay: FSH release in vivo after intravenous injection; set-up: species or system rat; conditions: for selectivity for FSH release in vivo, result in words: screen of known LHRH's and LHRH analogs, unpublished data; for Change in FSH from baseline, 10 minutes post-injection: saline control -3.85 ± 0.82
Protocol: (§2) Female rats were ovariectomized under anesthesia with isoflurane 4 weeks prior to the in vivo experiments. Three days before blood sampling, each ovariectomized rat was injected subcutaneously with 50 μg estradiol benzoate (Sigma Chemical Co., St. Louis, Mo.) dissolved in 0.1 ml sesame oil, and 25 mg progesterone (Eli Lilly, Indianapolis, Ind.) dissolved in 0.5 ml sesame oil. One day prior to testing, each animal was implanted with a jugular-atrial catheter. On the morning of testing, polyethylene tubing (PE-50) was connected to the distal end of the jugular-atrial catheter on the rat's dorsum to facilitate blood sampling and intravenous injection. Animals were acclimatized one hour before initial blood samples were taken. Heparinized blood samples ([…]) were collected just before, and at 10, 30, and 60 minutes after injection of 0.5 ml isotonic saline or l-LHRH-III (10 or 100 pmole) in 0.5 ml isotonic saline. After removal of each blood sample, an equal volume of isotonic saline was administered to maintain blood volume.

[4] = test system: rats; conditions: Yu et al., 1990; cited from earlier work
[5] = test system: ovariectomized, estrogen- and progesterone-blocked female rats; assay: LH release in vivo after intravenous injection; set-up: species or system rat; conditions: for Change in LH from baseline, 10 minutes post-injection: saline control -0.070 ± 0.122
Protocol: as §2

[6] = test system: Petromyzon marinus (lamprey) ovaries; conditions: Sower et al., 1993; cited from earlier work
[7] = Table 4 experiment, 10^-6 M, KRB control 157.5 ± 13.2
[8] = Table 4 experiment, 10^-7 M, KRB control 157.5 ± 13.2
[9] = Table 4 experiment, 10^-8 M, KRB control 157.5 ± 13.2
[10] = Table 5 experiment, 10^-6 M, KRB control 149.3 ± 17.0
[11] = Table 5 experiment, 10^-7 M, KRB control 149.3 ± 17.0
[12] = Table 5 experiment, 10^-8 M, KRB control 149.3 ± 17.0
[13] = Table 2, 10^-5 M, 3 hr incubation, KRB control 97.7 ± 20.4
[14] = Table 2, 10^-6 M, 3 hr incubation, KRB control 97.7 ± 20.4
[15] = Table 3, 10^-5 M, 3 hr incubation, KRB control 139.3 ± 16.9
[16] = Table 3, 10^-6 M, 3 hr incubation, KRB control 139.3 ± 16.9

## NC(=O)CNC(=O)[C@@H]1CCCN1C(=O)[C@H](Cc1ccc(O)cc1)NC(=O)[C@H](Cc1c[nH]c2ccccc12)NC(=O)CNC(=O)[C@H](Cc1c[nH]cn1)NC(=O)[C@H](CO)NC(=O)[C@H](Cc1c[nH]c2ccccc12)NC(=O)[C@H](Cc1c[nH]cn1)NC(=O)[C@@H]1CCC(=O)N1 [c-LHRH-II, pGlu-His-Trp-Ser-His-G1y-Trp-Tyr-Pro-Gly-NH2] ([pGlu]HWSHGWYPG-NH2)
[1]
  FSH release in vitro, result in words: only significantly increased FSH release at the highest concentration tested (10^-6 M)
[1]; [7]
  FSH: 263.7 ± 17.8 ng/mL
[1]; [8]
  FSH: 209.3 ± 44.0 ng/mL
[1]; [9]
  FSH: 123.7 ± 18.0 ng/mL
[1]; listed as chicken LHRH-II
  FSH release in vitro, result in words: low potency, and lacked specificity for FSH release
[2]
  LH release in vitro, result in words: equivalent LH-releasing activity to that of m-LHRH
[2]; [10]
  LH: 239.0 ± 31.7 ng/mL
[2]; [11]
  LH: 216.3 ± 17.7 ng/mL
[2]; [12]
  LH: 199.3 ± 13.6 ng/mL
[2]; listed as Chicken (c) LHRH-II
  LH release in vitro, result in words: stimulated LH release at doses from 10^-8 to 10^-6 M
[3]
  selectivity for FSH release in vivo, result in words: slight selectivity for FSH release
[3]; listed as chicken (c) LHRH-II
  selectivity for FSH release in vivo, result in words: slightly preferential FSH-releasing activity in vivo

## CC(C)C[C@H](NC(=O)[C@H](CO)NC(=O)[C@H](Cc1ccc(O)cc1)NC(=O)[C@H](Cc1c[nH]cn1)NC(=O)[C@@H]1CCC(=O)N1)C(=O)N[C@@H](CCC(=O)O)C(=O)N[C@@H](Cc1c[nH]c2ccccc12)C(=O)N[C@@H](CCCCN)C(=O)N1CCC[C@H]1C(=O)NCC(N)=O [l-LHRH-I, pGlu-His-Tyr-Ser-Leu-Glu-Trp-Lys-Pro-Gly-NH2] ([pGlu]HYSLEWKPG-NH2)
[1]
  FSH release in vitro, result in words: minimal potency to release either FSH or LH; also recorded: small but statistically significant release of FSH at a concentration of 10^-5 M
[1]; [13]
  FSH: 178.2 ± 17.0 ng/mL
[1]; [14]
  FSH: 164.0 ± 29.3 ng/mL
[2]
  LH release in vitro, result in words: minimal potency to release either FSH or LH; also recorded: inactive at the two concentrations tested
[2]; [15]
  LH: 120.4 ± 8.1 ng/mL
[2]; [16]
  LH: 134.1 ± 23.2 ng/mL
[4]
  activity in releasing FSH or LH in rats: relatively low activity in releasing either FSH or LH

## NCCCC[C@H](NC(=O)[C@H](Cc1c[nH]c2ccccc12)NC(=O)[C@H](CC(=O)O)NC(=O)[C@H](Cc1c[nH]cn1)NC(=O)[C@H](CO)NC(=O)[C@H](Cc1c[nH]c2ccccc12)NC(=O)[C@H](Cc1c[nH]cn1)NC(=O)[C@@H]1CCC(=O)N1)C(=O)N1CCC[C@H]1C(=O)NCC(N)=O [l-LHRH-III, pGlu-His-Trp-Ser-His-Asp-Trp-Lys-Pro-Gly-NH2]
[1]
  FSH release in vitro, result in words: approximately equipotent toward releasing FSH; also recorded: caused FSH release in a dose-related fashion
[1]; Table 2, 10^-4 M, 3 hr incubation, KRB control 97.7 ± 20.4
  FSH: 368.6 ± 40.9 ng/mL
[1]; [13]
  FSH: 283.0 ± 60.8 ng/mL
[1]; [14]
  FSH: 278.2 ± 40.9 ng/mL
[1]; Table 2, 10^-7 M, 3 hr incubation, KRB control 97.7 ± 20.4
  FSH: 213.0 ± 17.9 ng/mL
[1]; Table 2, 10^-8 M, 3 hr incubation, KRB control 97.7 ± 20.4
  FSH: 255.7 ± 42.4 ng/mL
[1]; Table 2, 10^-9 M, 3 hr incubation, KRB control 97.7 ± 20.4
  FSH: 228.3 ± 52.5 ng/mL
[1]; Table 4 experiment
  MEC for statistically significant FSH release relative to c-LHRH-II: two orders of magnitude lower
[1]; [7]
  FSH: 215.0 ± 38.0 ng/mL
[1]; [8]
  FSH: 203.2 ± 16.4 ng/mL
[1]; [9]
  FSH: 249.3 ± 31.3 ng/mL
[1]; Table 4 experiment, 10^-9 M, KRB control 157.5 ± 13.2
  FSH: 196.3 ± 21.2 ng/mL
[1]; lowest concentration tested 10^-9 M
  minimal effective concentration (MEC) for FSH release: ≤ 10^-9 M
[1]; release levelled off through 10^-4 M
  concentration of maximal effect on FSH release: about 10^-6 M
[2]; Table 3, 10^-4 M, 3 hr incubation, KRB control 139.3 ± 16.9
  LH: 236.6 ± 19.3 ng/mL
[2]; [15]
  LH: 202.9 ± 31.2 ng/mL
[2]; [16]
  LH: 233.6 ± 33.8 ng/mL
[2]; Table 3, 10^-7 M, 3 hr incubation, KRB control 139.3 ± 16.9
  LH: 179.9 ± 28.4 ng/mL
[2]; Table 3, 10^-8 M, 3 hr incubation, KRB control 139.3 ± 16.9
  LH: 165.7 ± 26.6 ng/mL
[2]; Table 3, 10^-9 M, 3 hr incubation, KRB control 139.3 ± 16.9
  LH: 171.8 ± 27.3 ng/mL
[2]; [10]
  LH: 176.0 ± 9.3 ng/mL
[2]; [11]
  LH: 182.7 ± 13.7 ng/mL
[2]; [12]
  LH: 163.2 ± 6.5 ng/mL
[2]; Table 5 experiment, 10^-9 M, KRB control 149.3 ± 17.0
  LH: 158.7 ± 10.2 ng/mL
[3]; 10 pmole and 100 pmole
  release of FSH versus LH in vivo, result in words: caused the release of FSH in vivo, but not LH
[3]; 10 pmole intravenous
  plasma FSH after injection versus saline control, result in words: highly significant increase in plasma FSH 10 minutes after injection, an effect that vanished by 30 minutes post-injection; also recorded: increase in FSH in vivo (P<0.01) within ten minutes
[3]; 10 pmole intravenous, n = 6
  Change in FSH from baseline, 10 minutes post-injection: -0.75 ± 0.37 ng/mL
[3]; 100 pmole intravenous
  plasma FSH after injection versus saline control, result in words: slightly greater effect at 10 minutes that was maintained 30 minutes after injection
[3]; 100 pmole intravenous, n = 7
  Change in FSH from baseline, 10 minutes post-injection: -0.43 ± 0.61 ng/mL
[5]; 10 pmole intravenous, n = 6
  Change in LH from baseline, 10 minutes post-injection: -0.022 ± 0.078 ng/mL
[5]; 10 pmole or 100 pmole intravenous, 10, 30, 60 minutes
  plasma LH after injection versus saline control, result in words: no significant increase in LH
[5]; 100 pmole intravenous, n = 7
  Change in LH from baseline, 10 minutes post-injection: 0.097 ± 0.077 ng/mL
[6]
  estradiol and progesterone release from ovaries: stimulated estradiol and progesterone release

## CC(C)C[C@H](NC(=O)CNC(=O)[C@H](Cc1ccc(O)cc1)NC(=O)[C@H](CO)NC(=O)[C@H](Cc1c[nH]c2ccccc12)NC(=O)[C@H](Cc1c[nH]cn1)NC(=O)[C@@H]1CCC(=O)N1)C(=O)N[C@@H](CCCNC(=N)N)C(=O)N1CCC[C@H]1C(=O)NCC(N)=O [m-LHRH, pGlu-His-Trp-Ser-Tyr-Gly-Leu-Arg-Pro-Gly-NH2]
[1]
  FSH release in vitro, result in words: approximately equipotent toward releasing FSH; also recorded: equivalent levels of FSH release at the two concentrations tested
[1]; Table 2, 2 × 10^-8 M, 3 hr incubation, KRB control 97.7 ± 20.4
  FSH: 257.5 ± 42.4 ng/mL
[1]; Table 2, 4 × 10^-9 M, 3 hr incubation, KRB control 97.7 ± 20.4
  FSH: 218.5 ± 35.7 ng/mL
[1]; Table 4 experiment, 2 × 10^-8 M, KRB control 157.5 ± 13.2
  FSH: 320.5 ± 42.6 ng/mL
[2]
  LH release in vitro, result in words: dose-related stimulatory effect on LH release, and was active at the lowest concentration tested (4×10^-9 M)
[2]; Table 3, 2 × 10^-8 M, 3 hr incubation, KRB control 139.3 ± 16.9
  LH: 262.0 ± 36.1 ng/mL
[2]; Table 3, 4 × 10^-9 M, 3 hr incubation, KRB control 139.3 ± 16.9
  LH: 183.1 ± 27.0 ng/mL
[2]; Table 5 experiment, 2 × 10^-8 M, KRB control 149.3 ± 17.0
  LH: 214.7 ± 30.3 ng/mL

## CC(C)C[C@H](NC(=O)[C@H](Cc1c[nH]c2ccccc12)NC(=O)CNC(=O)[C@H](Cc1ccc(O)cc1)NC(=O)[C@H](CO)NC(=O)[C@H](Cc1c[nH]c2ccccc12)NC(=O)[C@H](Cc1c[nH]cn1)NC(=O)[C@@H]1CCC(=O)N1)C(=O)N1CCC[C@H]1C(=O)NCC(N)=O [s-LHRH, pGlu-His-Trp-Ser-Tyr-Gly-Trp-Leu-Pro-Gly-NH2] ([pGlu]HWSYGWLPG-NH2)
[1]; [7]
  FSH: 203.2 ± 39.2 ng/mL
[1]; [8]
  FSH: 233.0 ± 37.4 ng/mL
[1]; listed as Salmon (s)-LHRH
  FSH release in vitro, result in words: stimulated the release of both FSH and LH
[1]; listed as Salmon LHRH
  FSH release in vitro, result in words: low potency, and lacked specificity for FSH release
[2]
  LH release in vitro, result in words: stimulated the release of both FSH and LH
[2]; [10]
  LH: 186.2 ± 13.6 ng/mL
[2]; [11]
  LH: 230.8 ± 38.8 ng/mL
